Measurements as given in ChEMBL document CHEMBL1201862, “PubChem BioAssay data set” (2004).
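Five compound concentrations were applied to cells in 96-well plates for 48 hours; endpoints were derived by simple linear interpolation of the resulting dose-response curve. The concentration for 50% growth inhibition is given as GI50.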 The source made the active and inactive calls. Rule as the data show it: active = GI50 up to about 1.1 µM and inactive = higher.

Columns and labels:
Assay in all cases: NCI tumour cell line growth inhibition, 48 h
[1] = test system: HOP-62
[2] = test system: LOX IMVI
[3] = test system: SNB-78
[4] = test system: HCT-116
[5] = test system: OVCAR-4
[6] = test system: IGROV-1
[7] = test system: 786-0
[8] = test system: DLD-1
[9] = test system: EKVX
[10] = test system: ACHN
[11] = test system: UACC-62
[12] = test system: M19-MEL
[13] = test system: NCI-H226
[14] = test system: DMS-114
[15] = test system: SN12C
[16] = test system: SNB-75
[17] = test system: KM-20L2
[18] = test system: HL-60
[19] = test system: OVCAR-8
[20] = test system: UO-31
[21] = test system: UACC-257
[22] = test system: OVCAR-5
[23] = test system: HOP-92
[24] = test system: OVCAR-3
[25] = test system: SF-295
[26] = test system: KM12
[27] = test system: Malme-3M
[28] = test system: RPMI-8226
[29] = test system: SNB-19
[30] = test system: MOLT-4
[31] = test system: M14
[32] = test system: TK-10
[33] = test system: COLO 205
[34] = test system: SW-620
[35] = test system: HT-29
[36] = test system: SF-268
[37] = test system: SK-MEL-28
[38] = test system: SK-MEL-5
[39] = test system: U-251
[40] = test system: A549
[41] = test system: NCI-H460
[42] = test system: RXF 393
[43] = test system: CCRF-CEM
[44] = test system: HCC 2998
[45] = test system: LXFL 529
[46] = test system: XF498
[47] = test system: NCI-H23
[48] = test system: RXF 631
[49] = test system: HOP-18
[50] = test system: SK-MEL-2
[51] = test system: HCT-15
[52] = test system: A498
[53] = test system: NCI-H522
[54] = test system: SF-539
[55] = test system: K562
[56] = test system: SK-OV-3
[57] = test system: CAKI-1
[58] = test system: DMS-273

O=C(NC1C(=O)NNC1c1cccc([N+](=O)[O-])c1)c1ccccc1 (stereo unspecified)
GI50 [1]: > 100 µM (inactive)
GI50 [2]: > 100 µM (inactive)
GI50 [3]: > 100 µM (inactive)
GI50 [4]: > 100 µM (inactive)
GI50 [5]: > 100 µM (inactive)
GI50 [6]: > 100 µM (inactive)
GI50 [7]: > 100 µM (inactive)
GI50 [8]: > 100 µM (inactive)
GI50 [9]: > 100 µM (inactive)
GI50 [10]: > 100 µM (inactive)
GI50 [11]: > 100 µM (inactive)
GI50 [12]: > 100 µM (inactive)
GI50 [13]: > 100 µM (inactive)
GI50 [14]: > 100 µM (inactive)
GI50 [15]: > 100 µM (inactive)
GI50 [16]: > 100 µM (inactive)
GI50 [17]: > 100 µM (inactive)
GI50 [18]: 90.8 µM (inactive)
GI50 [19]: > 100 µM (inactive)
GI50 [20]: > 100 µM (inactive)
GI50 [21]: > 100 µM (inactive)
GI50 [22]: > 100 µM (inactive)
GI50 [23]: > 100 µM (inactive)
GI50 [24]: > 100 µM (inactive)
GI50 [25]: > 100 µM (inactive)
GI50 [26]: > 100 µM (inactive)
GI50 [27]: > 100 µM (inactive)
GI50 [28]: > 100 µM (inactive)
GI50 [29]: > 100 µM (inactive)
GI50 [30]: > 100 µM (inactive)
GI50 [31]: > 100 µM (inactive)
GI50 [32]: > 100 µM (inactive)
GI50 [33]: > 100 µM (inactive)
GI50 [34]: > 100 µM (inactive)
GI50 [35]: > 100 µM (inactive)
GI50 [36]: > 100 µM (inactive)
GI50 [37]: > 100 µM (inactive)
GI50 [38]: > 100 µM (inactive)
GI50 [39]: > 100 µM (inactive)
GI50 [40]: > 100 µM (inactive)
GI50 [41]: > 100 µM (inactive)
GI50 [42]: > 100 µM (inactive)
GI50 [43]: > 100 µM (inactive)
GI50 [44]: > 100 µM (inactive)
GI50 [45]: > 100 µM (inactive)
GI50 [46]: > 100 µM (inactive)
GI50 [47]: > 100 µM (inactive)
GI50 [48]: > 100 µM (inactive)
GI50 [49]: > 100 µM (inactive)
GI50 [50]: > 100 µM (inactive)

Nc1nc(=O)n(C2CC(O)C(O)C(CO)O2)cc1F (stereo unspecified)
GI50 [1]: > 100 µM (inactive)
GI50 [2]: > 100 µM (inactive)
GI50 [3]: > 100 µM (inactive)
GI50 [4]: > 100 µM (inactive)
GI50 [5]: > 100 µM (inactive)
GI50 [6]: > 100 µM (inactive)
GI50 [7]: > 100 µM (inactive)
GI50 [8]: > 100 µM (inactive)
GI50 [51]: > 100 µM
GI50 [9]: > 100 µM (inactive)
GI50 [10]: > 100 µM (inactive)
GI50 [11]: > 100 µM (inactive)
GI50 [12]: > 100 µM (inactive)
GI50 [13]: > 100 µM (inactive)
GI50 [52]: > 100 µM (inactive)
GI50 [14]: > 100 µM (inactive)
GI50 [15]: > 100 µM (inactive)
GI50 [16]: > 100 µM (inactive)
GI50 [17]: > 100 µM (inactive)
GI50 [53]: > 100 µM (inactive)
GI50 [18]: > 100 µM (inactive)
GI50 [19]: > 100 µM (inactive)
GI50 [20]: > 100 µM (inactive)
GI50 [21]: > 100 µM (inactive)
GI50 [22]: > 100 µM (inactive)
GI50 [24]: > 100 µM (inactive)
GI50 [25]: > 100 µM (inactive)
GI50 [27]: > 100 µM (inactive)
GI50 [28]: > 100 µM (inactive)
GI50 [29]: > 100 µM (inactive)
GI50 [30]: > 100 µM (inactive)
GI50 [54]: > 100 µM (inactive)
GI50 [31]: > 100 µM (inactive)
GI50 [32]: > 100 µM (inactive)
GI50 [33]: > 100 µM (inactive)
GI50 [34]: > 100 µM (inactive)
GI50 [35]: > 100 µM (inactive)
GI50 [36]: > 100 µM (inactive)
GI50 [37]: > 100 µM (inactive)
GI50 [39]: > 100 µM (inactive)
GI50 [55]: > 100 µM (inactive)
GI50 [40]: > 100 µM (inactive)
GI50 [41]: > 100 µM (inactive)
GI50 [42]: > 100 µM (inactive)
GI50 [43]: > 100 µM (inactive)
GI50 [44]: > 100 µM (inactive)
GI50 [45]: > 100 µM (inactive)
GI50 [46]: 61.4 µM (inactive)
GI50 [47]: > 100 µM (inactive)
GI50 [48]: > 100 µM (inactive)
GI50 [49]: > 100 µM (inactive)
GI50 [50]: > 100 µM (inactive)

CC1(C)C2CCC3(OCCO3)C1C1OC12 (stereo unspecified)
GI50 [2]: > 100 µM (inactive)
GI50 [3]: > 100 µM (inactive)
GI50 [4]: > 100 µM (inactive)
GI50 [5]: > 100 µM (inactive)
GI50 [7]: > 100 µM (inactive)
GI50 [51]: > 100 µM
GI50 [9]: > 100 µM (inactive)
GI50 [10]: > 100 µM (inactive)
GI50 [13]: > 100 µM (inactive)
GI50 [52]: > 100 µM (inactive)
GI50 [16]: 41.4 µM (inactive)
GI50 [17]: > 100 µM (inactive)
GI50 [53]: > 100 µM (inactive)
GI50 [18]: > 100 µM (inactive)
GI50 [19]: > 100 µM (inactive)
GI50 [20]: > 100 µM (inactive)
GI50 [21]: > 100 µM (inactive)
GI50 [22]: > 100 µM (inactive)
GI50 [23]: > 100 µM (inactive)
GI50 [24]: > 100 µM (inactive)
GI50 [25]: > 100 µM (inactive)
GI50 [26]: > 100 µM (inactive)
GI50 [56]: > 100 µM (inactive)
GI50 [27]: > 100 µM (inactive)
GI50 [28]: > 100 µM (inactive)
GI50 [29]: 30 µM (inactive)
GI50 [30]: > 100 µM (inactive)
GI50 [57]: 44.3 µM (inactive)
GI50 [54]: > 100 µM (inactive)
GI50 [31]: > 100 µM (inactive)
GI50 [32]: > 100 µM (inactive)
GI50 [33]: > 100 µM (inactive)
GI50 [34]: > 100 µM (inactive)
GI50 [35]: > 100 µM (inactive)
GI50 [36]: > 100 µM (inactive)
GI50 [37]: > 100 µM (inactive)
GI50 [38]: > 100 µM (inactive)
GI50 [39]: > 100 µM (inactive)
GI50 [55]: > 100 µM (inactive)
GI50 [40]: > 100 µM (inactive)
GI50 [58]: > 100 µM (inactive)
GI50 [41]: > 100 µM (inactive)
GI50 [42]: > 100 µM (inactive)
GI50 [43]: > 100 µM (inactive)
GI50 [46]: > 100 µM (inactive)
GI50 [47]: > 100 µM (inactive)
GI50 [48]: > 100 µM (inactive)
GI50 [49]: 45.6 µM (inactive)
GI50 [50]: > 100 µM (inactive)
